Earlier results on 3 compounds are cited in patent publication US20260335255A1, “PHARMACEUTICAL COMPOSITIONS” (priority 2022, published 2026).

Molecules are shown by their SMILES. Converted amounts (≈) assume the structure as drawn. Structures can show the parent of a compound that is named as a salt.

Series [1] deals with patients. The following applies: anesthetic use; Pediatric Anesthesia 2005 15: 91-97.
A further series relates to patients with depression. The following applies: 0.5 mg/kg; 40 min infusion.
In series [2] the test system is patients. To be noted: for side effects: b8: single subanesthetic dose.

Turning to `CN[C@]1(c2ccccc2Cl)CCCCC1=O` [S(+) ketamine], the “duration of action compared with racemic ketamine” value in the series on patients [1] is “significantly shorter acting than racemic ketamine”.

In the case of `CNC1(c2ccccc2Cl)CCCCC1=O` (racemic) [Ketamine], the solubility in water was 200 mg/mL (≈ 841 mM). The “concentration needed for therapeutic efficacy in patients with depression” value in the series on patients with depression was 185 ng/mL. The “thought disorder and withdrawal-retardation” value in the series on healthy volunteers is “significant levels of thought disorder and withdrawal-retardation”. In the series on patients [2] (background), the effect on memory entry was “direct effects on free recall and recognition memory”; the side effects result was “transient dissociation and psychotomimetic side effects and hemodynamic changes”. Also, the depressive symptoms entry with patients [2] (single subanesthetic dose) was “reduces depressive symptoms”.

As for `CNC1(c2ccccc2Cl)CCCCC1=O` (centres unmarked) [ketamine hydrochloride, Ketamine Hydrochloride], the side effects entry in the series on patients [2] (background) is reported as “blurred vision, double vision, dream-like feeling, dizziness, drowsiness, jerky muscle movements, loss of appetite, nausea, vomiting, sleep problems such as insomnia”.
